{
  "source": "patent US20130281491A1",
  "about": "(priority 2010, published 2013)",
  "experiment": "Forced degradation of methadone hydrochloride solutions (HPLC)",
  "conditions": "1M hydrochloric acid or 0.1M sodium hydroxide, 25° C. for a week",
  "data": [
    {"smiles": "CCC(=O)C(CC(C)N(C)C)(c1ccccc1)c1ccccc1", "note": "(stereo not shown) [methadone]", "values": [
      {"measurement": "Stability with acids and bases", "value": "no detected degradation"}
    ]}
  ]
}
